Data reported in patent US10780042B2, “Cosmetic compositions” (Symrise AG, priority 2015, dated 2020).

How the values were obtained:
POMC gene expression = experiment: Particle induced POMC gene expression in human epidermal keratinocytes (qRT-PCR); type: cell-based
Description: (§1) Gene expression was induced by different model particles. […] The details are set out in Table 1:
(§2) Gene expression was analyzed via qRT-PCR.
(§3) Ginger root CO2 extract has been dissolved in DMSO and diluted in medium. […] Gene expression was analyzed via qRT-PCR. […] Table 7 compiles the results for ginger root CO2 extract altered POMC and IL-6 gene expression
(§4) Purple coneflower pressed juice has been dissolved directly in medium. […] Gene expression was analyzed via qRT-PCR. […] Table 8 compiles the results for purple coneflower pressed juice altered POMC and IL-6 gene expression
(§5) Gene expression was analyzed via qRT-PCR. […] Table 9 compiles the results for purple coneflower pressed juice altered POMC and IL-6 gene expression

5-lipoxygenase = target: T1, 5-lipoxygenase (Homo sapiens, UniProt P09917); conditions: described in WO 200 230385 A2 (Henkel); cited from earlier work
T1 sequence (P09917 1-674): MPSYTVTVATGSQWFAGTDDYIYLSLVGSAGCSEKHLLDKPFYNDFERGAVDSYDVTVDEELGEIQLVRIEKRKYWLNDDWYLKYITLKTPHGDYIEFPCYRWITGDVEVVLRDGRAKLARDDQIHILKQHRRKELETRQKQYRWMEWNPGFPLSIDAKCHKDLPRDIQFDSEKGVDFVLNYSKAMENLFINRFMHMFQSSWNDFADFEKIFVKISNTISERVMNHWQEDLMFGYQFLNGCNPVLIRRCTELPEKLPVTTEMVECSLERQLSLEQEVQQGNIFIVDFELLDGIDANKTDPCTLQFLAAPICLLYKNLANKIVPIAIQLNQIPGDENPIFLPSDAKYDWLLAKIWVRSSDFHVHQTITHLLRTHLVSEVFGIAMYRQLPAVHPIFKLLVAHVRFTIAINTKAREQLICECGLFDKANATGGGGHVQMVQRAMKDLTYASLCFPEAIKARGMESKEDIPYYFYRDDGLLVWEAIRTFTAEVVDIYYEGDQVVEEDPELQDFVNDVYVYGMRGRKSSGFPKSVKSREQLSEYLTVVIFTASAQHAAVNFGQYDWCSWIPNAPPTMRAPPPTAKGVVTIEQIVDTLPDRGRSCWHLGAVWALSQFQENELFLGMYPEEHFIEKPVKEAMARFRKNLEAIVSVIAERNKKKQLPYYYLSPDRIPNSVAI

cyclooxygenase-1 = cyclooxygenase-1 (Homo sapiens, UniProt P23219); conditions: described in WO 200 230385 A2 (Henkel); cited from earlier work
cyclooxygenase-1, sequence (P23219 24-599, species assumed): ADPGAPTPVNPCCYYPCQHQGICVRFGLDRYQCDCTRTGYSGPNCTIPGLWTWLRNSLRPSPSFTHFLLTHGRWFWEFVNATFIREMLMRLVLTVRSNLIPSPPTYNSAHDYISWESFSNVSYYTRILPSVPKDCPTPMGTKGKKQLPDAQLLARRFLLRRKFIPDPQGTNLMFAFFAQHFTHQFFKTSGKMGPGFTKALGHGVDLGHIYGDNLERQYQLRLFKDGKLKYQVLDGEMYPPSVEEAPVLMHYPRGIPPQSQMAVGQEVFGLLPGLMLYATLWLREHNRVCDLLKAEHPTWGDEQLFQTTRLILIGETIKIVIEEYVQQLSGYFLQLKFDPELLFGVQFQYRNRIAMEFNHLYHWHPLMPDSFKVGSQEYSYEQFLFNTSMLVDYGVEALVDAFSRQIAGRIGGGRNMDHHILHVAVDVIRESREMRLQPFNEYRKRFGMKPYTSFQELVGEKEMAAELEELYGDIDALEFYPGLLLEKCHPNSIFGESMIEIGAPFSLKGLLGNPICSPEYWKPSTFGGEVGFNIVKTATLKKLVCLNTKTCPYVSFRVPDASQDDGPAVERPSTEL

CYP1A1 gene expression = experiment: Particle induced CYP1A1 gene expression in human epidermal keratinocytes (qRT-PCR); type: cell-based; conditions: for CYP1A1 Induction mean ± SE: 10 μM BDDI
Description: as §1, §2

IL-6 gene expression = experiment: Particle induced IL-6 gene expression in human epidermal keratinocytes (qRT-PCR); type: cell-based
Description: as §1, §2, §3, §4, §5

MMP1 gene expression = experiment: Particle induced MMP1 gene expression in human epidermal keratinocytes (qRT-PCR); type: cell-based
Description: as §1, §2

AhR = target: T2, AhR (Homo sapiens, UniProt P35869); conditions: stated as known; cited from earlier work
T2 sequence (P35869 11-848): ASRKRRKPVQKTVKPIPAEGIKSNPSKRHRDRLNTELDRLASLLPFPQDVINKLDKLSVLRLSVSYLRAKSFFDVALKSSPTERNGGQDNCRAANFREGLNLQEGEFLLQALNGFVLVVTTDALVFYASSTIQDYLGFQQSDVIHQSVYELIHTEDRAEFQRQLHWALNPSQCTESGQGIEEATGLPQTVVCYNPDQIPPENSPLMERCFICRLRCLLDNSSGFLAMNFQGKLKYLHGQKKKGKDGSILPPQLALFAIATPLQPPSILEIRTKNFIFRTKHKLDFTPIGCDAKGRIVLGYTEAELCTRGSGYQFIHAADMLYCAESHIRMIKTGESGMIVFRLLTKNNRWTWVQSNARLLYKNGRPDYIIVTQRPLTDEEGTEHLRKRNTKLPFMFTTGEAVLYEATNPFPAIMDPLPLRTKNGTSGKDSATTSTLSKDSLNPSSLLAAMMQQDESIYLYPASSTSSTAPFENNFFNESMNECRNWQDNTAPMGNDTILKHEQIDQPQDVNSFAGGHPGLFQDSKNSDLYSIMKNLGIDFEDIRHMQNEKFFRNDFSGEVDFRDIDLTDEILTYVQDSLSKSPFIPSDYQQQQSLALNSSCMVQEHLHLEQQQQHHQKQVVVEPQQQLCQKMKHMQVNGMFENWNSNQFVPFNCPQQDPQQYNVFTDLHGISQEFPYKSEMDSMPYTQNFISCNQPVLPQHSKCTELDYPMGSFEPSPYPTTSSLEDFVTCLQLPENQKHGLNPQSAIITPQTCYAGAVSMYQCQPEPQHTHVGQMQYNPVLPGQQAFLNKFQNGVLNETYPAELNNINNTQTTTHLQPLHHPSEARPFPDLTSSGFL

| Compound | inhibition of particle induced POMC gene expression (in words) (POMC gene expression) | inhibition of 5-lipoxygenase (in words) (5-lipoxygenase) | inhibition of cyclooxygenase-1 activity (in words) (cyclooxygenase-1) | CYP1A1 Induction mean ± SE (CYP1A1 gene expression; NHEK adult, 6 h, SRM1650 1.5 μg/cm2, untreated = 1, particles alone 2.90) | CYP1A1 Induction mean ± SE (CYP1A1 gene expression; NHEK adult, 6 h, SRM2975 1.5 μg/cm2, untreated = 1, particles alone 1.03) | CYP1A1 Induction mean ± SE (CYP1A1 gene expression; NHEK adult, 24 h, SRM2975 1.5 μg/cm2, untreated = 1, particles alone 4.90) | inhibition of particle induced Cyp1A1 gene expression (in words) (CYP1A1 gene expression; indoor as well as outdoor model particles) | CYP1A1 Induction mean ± SE (CYP1A1 gene expression; indoor particles Huber990 1.5 μg/cm2, 6 h, untreated = 1, particles alone 2.70) | CYP1A1 Induction mean ± SE (CYP1A1 gene expression; indoor particles Huber990 1.5 μg/cm2, 24 h, untreated = 1, particles alone 2.90) | inhibition of particle induced IL-6 gene expression (in words) (IL-6 gene expression) | inhibition of particle induced MMP1 gene expression (in words) (MMP1 gene expression) | upregulation of the AhR by UVB radiation (in words) (AhR) |
| --- | --- | --- | --- | --- | --- | --- | --- | --- | --- | --- | --- | --- |
| CC1(C)CCC[C@]2(C)C3CC(=O)O[C@]3(C)CC[C@@H]12 (stereo partly drawn) [Sclareolide, (3aR,5aS,9aS,9bR)-decahydro-3a,6,6,9a-tetramethyl-naphtha[2,1-b]furan-2(1H)-one] | capable to inhibit | inhibition | inhibition |  |  |  |  |  |  |  |  |  |
| C=C[C@](C)(O)CC[C@@H]1[C@@]2(C)CCCC(C)(C)[C@@H]2CC[C@@]1(C)O [sclareol, reference compound] |  | inhibition | inhibition |  |  |  |  |  |  |  |  |  |
| E/Z-2-benzylindene-5,6-dimethoxy-3,3-dimethylindan-1-one [BDDI] | capable to inhibit |  |  | 0.02 ± 0.00 | 0.20 ± 0.00 | 0.01 ± 0.00 | capable to inhibit | 0.05 ± 0.00 | 0.20 ± 0.00 | capable to inhibit | capable to inhibit | prevent the upregulation |
